From patent US11352350B2, “IRAK degraders and uses thereof” (Kymera Therapeutics, Inc., priority 2018, dated 2022)
Like-named read-outs stand apart in the source and are kept apart here.

Legend:
IRAK4 = IRAK4 (Homo sapiens (Human), UniProt Q9NWZ3); assay: IRAK4 MSD degradation in OCI-LY10; format: cell-based
Description: Degradation of IRAK4 in OCI-LY10 was quantitatively measured using Meso Scale Discovery technology. […] Compounds were then added to the assay plates with a final top concentration of 1 to 10 μM in a 1:3 dilution series with total of 8 doses. The assay plates were then incubated for 4 to 24 hours at 37° C. under 5% CO2. […] To prepare MSD assay plates (Meso Scale Discovery Catalog number L15XA-3), the plates were coated with […] capture antibody (mouse Anti-IRAK4 antibody [2H9], ab119942) in PBS, at 40 μL/well. […] Cell lysates were then added to MSD assay plates and the plates were incubated at room temperature for 1 hour. The plates were then washed 3 times with 150 μL/well TBST buffer and 25 μL/well primary detection antibody (rabbit Anti-IRAK4 antibody [Y279], from Abcam. Catalog number ab32511, […]). The assay plates were then incubated at room temperature for 1 hour, washed 3 times with 150 μL/well TBST buffer and 25 µL/well secondary detection antibody, SULFO-TAG anti-rabbit antibody were added (anti rabbit antibody from Meso Scale Discovery, Catalog number R32AB-1, 1 μg/mL). The assay plates were then incubated at room temperature for 1 hour, washed 3 times with 150 μL/well TB ST buffer, and 150 μL/well MSD reading buffer (Meso Scale Discovery catalog number R92TC-2) was added. The plates were then analyzed by a MSD reader (Meso Scale Discovery, Model Quick Plex SQ 120). The data was then analyzed by software Prism 7.0 from GraphPad and the dose-depended IRAK4 degradation were fit using a three-parameter logistic equation to calculate DC50.

OCI-LY10 = assay: CTG Cell Viability Assay - OCI-LY10; format: cell-based, human; settings: OCI-LY10, 4 days, read-out: CTG Cell Viability Assay - OCI-LY10: Average external-IC50
Description: Compound-mediated viability effect on OCI-LY10 or TMD8 was quantitatively determined using the CellTiter-Glo® Luminescent Cell Viability Assay kit from Promega (Catalog number G7570) following manufacturer's recommended procedures. […] Compounds were then added to the assay plate with final top concentration of 10 μM and 1:3 dilution series with total of 9 doses. The final DMSO concentration was normalized to 0.2%. The assay plates were incubated at 37° C. for 4 days under 5% CO2. Then the assay plate was equilibrated at room temperature for 10 minutes. […] The data was then analyzed by software Prism 7.0 from GraphPad and the dose response curves were fit using a three-parameter logistic equation to calculate IC50.

[1] = OCI-LY10, 4 hrs, read-out: IRAK4 MSD degradation in OCI-LY10 at 4 hrs: DC50
[2] = OCI-LY10, 24 hrs, read-out: IRAK4 MSD degradation in OCI-LY10 at 24 hrs: DC50
[3] = OCI-LY10, 4 hrs, MSD, read-out: IRAK4 MSD degradation in OCI-LY10 at 4 hrs: Average external-Abs DC50
[4] = OCI-LY10, 24 hrs, MSD, read-out: IRAK4 MSD degradation in OCI-LY10 at 24 hrs: Average external-Abs DC50

Sequence of IRAK4 (Q9NWZ3 whole entry): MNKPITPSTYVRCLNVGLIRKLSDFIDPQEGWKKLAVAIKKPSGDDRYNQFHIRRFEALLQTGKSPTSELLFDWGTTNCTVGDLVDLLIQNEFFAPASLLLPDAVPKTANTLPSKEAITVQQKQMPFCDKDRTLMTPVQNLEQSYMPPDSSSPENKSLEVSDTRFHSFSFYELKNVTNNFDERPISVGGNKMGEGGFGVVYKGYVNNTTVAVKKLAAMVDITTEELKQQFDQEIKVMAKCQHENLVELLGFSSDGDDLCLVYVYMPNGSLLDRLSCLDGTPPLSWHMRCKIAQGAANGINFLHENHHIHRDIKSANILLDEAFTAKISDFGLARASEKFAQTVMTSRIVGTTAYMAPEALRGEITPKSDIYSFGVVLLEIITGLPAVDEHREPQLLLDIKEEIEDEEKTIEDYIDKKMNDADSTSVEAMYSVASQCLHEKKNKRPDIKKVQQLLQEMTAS

Row | Structure (SMILES) | DC50 (IRAK4; [1]) | DC50 (IRAK4; [2]) | IC50 (OCI-LY10; Homo sapiens, OCI-Ly10, 96 h) | DC50 (IRAK4; [3]) | DC50 (IRAK4; [4]) | IC50 (OCI-LY10)
1 | CN(C[C@H]1CC[C@H](n2cc(NC(=O)c3cnn4ccc(NCC5CC5)nc34)c(C(F)F)n2)CC1)[C@H]1CC[C@H](Nc2cccc3c2C(=O)N(C2CCC(=O)NC2=O)C3=O)CC1 (stereo partly shown) [I-453] | 10 to 100 nM | < 10 nM | 50 to 100 nM | – | – | –
2 | O=C1CCC(N2C(=O)c3cccc(NCCCOC4CCN(C[C@H]5CC[C@H](n6cc(NC(=O)c7cnn8ccc(N9C%10COCC9C%10)nc78)c(C(F)F)n6)CC5)CC4)c3C2=O)C(=O)N1 (stereo partly shown) [I-345] | – | – | < 50 nM | 100 to 1000 nM | 10 to 100 nM | –
3 | O=C1CCC(N2C(=O)c3cccc(NCCCOCCCN4CCC(n5cc(NC(=O)c6cnn7ccc(N8CCOCC8)nc67)c(C(F)F)n5)CC4)c3C2=O)C(=O)N1 (stereo not shown) [I-226] | – | – | < 50 nM | 100 to 1000 nM | 10 to 100 nM | –
4 | Cn1c(=O)n(C2CCC(=O)NC2=O)c2cccc(C3CCN(C[C@H]4CC[C@H](n5cc(NC(=O)c6cnn7ccc(N8CCOCC8)nc67)c(C(F)F)n5)CC4)CC3)c21 (stereo partly shown) [I-199] | – | – | > 1000 nM | 100 to 1000 nM | – | –
5 | CN1C(=O)C(C2CCC(=O)NC2=O)c2cccc(CCCOC3CCN(C[C@H]4CC[C@H](n5cc(NC(=O)c6cnn7ccc(NCCC(C)(C)O)nc67)c(C(F)F)n5)CC4)CC3)c21 (stereo partly shown) [I-288] | – | – | > 1000 nM | < 10 nM | – | –
6 | C[C@@H]1CN(c2ccn3ncc(C(=O)Nc4cn([C@H]5CC[C@H](CN6CCC(OCCCc7cccc8c7n(C)c(=O)n8C7CCC(=O)NC7=O)CC6)CC5)nc4C(F)F)c3n2)C[C@@H](C)O1 (stereo partly shown) [I-276] | – | – | > 1000 nM | < 10 nM | – | –
7 | CN(CCOCCNCc1ccc2c(c1)n(C)c(=O)n2C1CCC(=O)NC1=O)C[C@H]1CC[C@H](n2cc(NC(=O)c3coc(-c4ccnc(NCC5CC5)c4)n3)c(C(F)F)n2)CC1 (stereo partly shown) [I-107] | – | – | > 1000 nM | < 10 nM | – | –
8 | CN(CCCOCCCc1cccc2c1n(C)c(=O)n2[C@@H]1CCC(=O)NC1=O)C[C@H]1CC[C@H](n2cc(NC(=O)c3coc(-c4ccnc(NCC5CC5)c4)n3)c(C(F)F)n2)CC1 (single isomer, unassigned) [I-307] | – | – | > 1000 nM | 10 to 100 nM | – | –
9 | Cn1c(=O)n(C2CCC(=O)NC2=O)c2ccc(CCCCOCCCCNCC(=O)N3CCN([C@H]4CC[C@H](Nc5ncnc6[nH]cc(C7CCOCC7)c56)CC4)CC3)cc21 (stereo partly shown) [I-23] | – | – | 50 to 100 nM | 10 to 100 nM | < 10 nM | –
10 | O=C1CCC(N2C(=O)c3cccc(NCCc4ccc(CNC[C@H]5CC[C@H](n6cc(NC(=O)c7cnn8ccc(N9C[C@H]%10C[C@@H]9CO%10)nc78)c(C(F)F)n6)CC5)cc4)c3C2=O)C(=O)N1 (stereo partly drawn) [I-351, N-[3-(difluoromethyl)-1-[4-[[[4-[2-[[2-(2,6-dioxo-3-piperidyl)-1,3-dioxo-isoindolin-4-yl]amino]ethyl]phenyl]methylamino]methyl]cyclohexyl]pyrazol-4-yl]-5-[(1R,4R)-2-oxa-5-azabicyclo[2.2.1]heptan-5-yl]pyrazolo[1,5-a]pyrimidine-3-carboxamide] | – | – | > 1000 nM | > 1000 nM | – | –
11 | CN1C(=O)C(C2CCC(=O)NC2=O)c2ccc(CN3CCC(N(C)C[C@H]4CC[C@H](n5cc(NC(=O)c6coc(-c7ccnc(NCC8CC8)c7)n6)c(C(F)F)n5)CC4)CC3)cc21 (stereo partly shown) [I-239] | – | – | – | 10 to 100 nM | – | > 1000 nM
12 | Cn1c(=O)n(C2CCC(=O)NC2=O)c2cccc(CCCOC3CCN(C[C@H]4CC[C@H](n5cc(NC(=O)c6cnn7ccc(N8CCC(O)CC8)nc67)c(C(F)F)n5)CC4)CC3)c21 (stereo partly shown) [I-157] | – | – | > 1000 nM | < 10 nM | – | –
13 | COc1cc(C(=O)NCCOCCOCCN(C)C[C@H]2CC[C@H](n3cc(NC(=O)c4coc(-c5ccnc(NCC6CC6)c5)n4)c(C(F)F)n3)CC2)ccc1NC(=O)[C@@H]1N[C@@H](CC(C)(C)C)[C@](C#N)(c2ccc(Cl)cc2F)[C@H]1c1cccc(Cl)c1F [I-145] | – | – | – | > 1000 nM | > 1000 nM | > 1000 nM
14 | CC[C@@H]1[C@H](F)C(=O)N[C@@H]1COc1ncc(C#CC2CCN(CC3CCN(Cc4cccc5c4n(C)c(=O)n5C4CCC(=O)NC4=O)CC3)CC2)c2cc(C(N)=O)c(OC)cc12 (stereo partly shown) [I-194] | – | – | > 1000 nM | 10 to 100 nM | – | –
15 | CN(C[C@H]1CC[C@H](n2cc(NC(=O)c3coc(-c4ccnc(NCC5CC5)c4)n3)c(C(F)F)n2)CC1)C1CCN(Cc2cccc3c2n(C)c(=O)n3[C@@H]2CCC(=O)NC2=O)CC1 [I-309, 2-(2-((cyclopropylmethyl)amino)pyridin-4-yl)-N-(3-(difluoromethyl)-1-((1R,4r)-4-(((1-((1-((R)-2,6-dioxopiperidin-3-yl)-3-methyl-2-oxo-2,3-dihydro-1H-benzo [d]imidazol-4-yl)methyl)piperidin-4-yl)(methyl)amino)methyl)cyclohexyl)-1H-pyrazol-4-yl)oxazole-4-carboxamide] | – | – | < 50 nM | 10 to 100 nM | – | –
16 | COc1cc(C(=O)NCCCCN(C)C[C@H]2CC[C@H](n3cc(NC(=O)c4coc(-c5ccnc(NCC6CC6)c5)n4)c(C(F)F)n3)CC2)ccc1NC(=O)[C@@H]1N[C@@H](CC(C)(C)C)[C@](C#N)(c2ccc(Cl)cc2F)[C@H]1c1cccc(Cl)c1F [I-142] | – | – | – | > 1000 nM | > 1000 nM | > 1000 nM
17 | CN(CCCOCCCNc1cccc2c1C(=O)N(C1CCC(=O)NC1=O)C2=O)C[C@H]1CC[C@H](n2cc(NC(=O)c3coc(-c4ccnc(N[C@@H]5CCCC[C@@H]5O)c4)n3)c(C(F)F)n2)CC1 (stereo partly shown) [I-399] | – | – | < 50 nM | 10 to 100 nM | < 10 nM | –
18 | O=C1CCC(N2C(=O)c3cccc(NCCCOC4CCN(C[C@H]5CC[C@H](n6cc(NC(=O)c7cnn8ccc(N9CC%10(COC%10)C9)nc78)c(C(F)F)n6)CC5)CC4)c3C2=O)C(=O)N1 (stereo partly shown) [I-364] | – | – | 50 to 100 nM | – | 10 to 100 nM | –
19 | CN(CC1CCC(n2cc(NC(=O)c3cnn4ccc(C5CCOCC5)nc34)c(C(F)F)n2)CC1)[C@H]1CC[C@H](Nc2cccc3c2C(=O)N(C2CCC(=O)NC2=O)C3=O)CC1 (stereo partly shown) [I-478] | 100 to 1000 nM | 10 to 100 nM | > 1000 nM | – | – | –
20 | O=C1CCC(N2C[C@@H](c3ccc(C#CCCOC4CCN(C[C@H]5CC[C@H](n6cc(NC(=O)c7cnn8ccc(N9CCC(O)CC9)nc78)c(C(F)F)n6)CC5)CC4)cc3)OC2=O)C(=O)N1 (stereo partly shown) [I-152] | – | – | > 1000 nM | 10 to 100 nM | – | –
21 | CN(CCN1CCN(c2cccc3c2C(=O)N(C2CCC(=O)NC2=O)C3=O)CC1)C[C@H]1CC[C@H](n2cc(NC(=O)C3CNN4C=CC(N5CCOCC5)=NC34)c(C(F)F)n2)CC1 (stereo partly shown) [I-224] | – | – | > 1000 nM | 100 to 1000 nM | – | –
22 | CN(CCCN1CCO[C@H](CNc2cccc3c2C(=O)N(C2CCC(=O)NC2=O)C3=O)C1)C[C@H]1CC[C@H](n2cc(NC(=O)c3cnn4ccc(N5C[C@H]6C[C@@H]5CO6)nc34)c(C(F)F)n2)CC1 (stereo partly shown) [I-475] | 10 to 100 nM | < 10 nM | < 50 nM | – | – | –
23 | CN(C[C@H]1CC[C@H](n2cc(NC(=O)c3cnn4ccc(NCC5CC5)nc34)c(C(C)(C)O)n2)CC1)C1CCN(Cc2cccc3c2n(C)c(=O)n3C2CCC(=O)NC2=O)CC1 (stereo partly shown) [I-268] | – | – | > 1000 nM | 100 to 1000 nM | – | –
24 | O=C1CCC(N2C(=O)c3cccc(NCCCOCCCN4CCN(c5ncc(-n6cc(NC(=O)c7cnn8ccc(N9CCOCC9)nc78)c(C(F)F)n6)cn5)CC4)c3C2=O)C(=O)N1 (stereo not shown) [I-456] | 100 to 1000 nM | 100 to 1000 nM | < 50 nM | – | – | –
25 | Cn1c(=O)n(C2CCC(=O)NC2=O)c2ccc(CCCOC3CCN(C[C@H]4CC[C@H](n5cc(NC(=O)c6cnn7ccc(N8CCNCC8)nc67)c(C(F)F)n5)CC4)CC3)cc21 (stereo partly shown) [I-162] | – | – | > 1000 nM | < 10 nM | – | –
26 | Cn1c(=O)n([C@H]2CCC(=O)NC2=O)c2cccc(CCCOC3CCN(C[C@H]4CC[C@H](n5cc(NC(=O)c6cnn7ccc(N8CCOCC8)nc67)c(C(F)F)n5)CC4)CC3)c21 [I-310, N-(3-(difluoromethyl)-1-((1r,4r)-4-((4-(3-(1-((S)-2,6-dioxopiperidin-3-yl)-3-methyl-2-oxo-2,3-dihydro-1H-benzo [d]imidazol-4-yl)propoxy)piperidin-1-yl)methyl)cyclohexyl)-1H-pyrazol-4-yl)-5-morpholinopyrazolo[1,5-a]pyrimidine-3-carboxamide] | – | – | > 1000 nM | < 10 nM | – | –
27 | C[C@@H](CCNc1cccc2c1C(=O)N(C1CCC(=O)NC1=O)C2=O)OC1CCN(C[C@H]2CC[C@H](n3cc(NC(=O)c4cnn5ccc(N6C[C@H]7C[C@@H]6CO7)nc45)c(C(F)F)n3)CC2)CC1 (stereo partly shown) [I-551] | 100 to 1000 nM | – | < 50 nM | – | – | –
